Structures are written as SMILES. Where a name gives a salt, the structure may show the parent alone.

Drawing on US20230257354A1, “NOVEL HETEROCYCLIC COMPOUNDS” (Hoffmann-La Roche Inc., priority 2020, published 2023), this text covers IC90 for 18 compounds.

This test concerns Acinetobacter baumannii ATCC17978. As to the kind of experiment: Antimicrobial susceptibility testing, 90% growth inhibitory concentration (IC90) determination, ATCC17978. Format: cell-based. As to conditions: Iso-Sensitest broth, OD 600 nm over 16 h, 35±2° C., read-out: ATCC 17978 IC90. The protocol: Antimicrobial Susceptibility Testing: 90% Growth Inhibitory Concentration (IC90) Determination The in vitro antimicrobial activity of the compounds was determined according to the following procedure: The assay used a 10-points Iso-Sensitest broth medium to measure quantitatively the in vitro activity of the compounds against Acinetobacter baumannii ATCC17978 or ATCC17961. Stock compounds in DMSO were serially twofold diluted (e.g. range from 50 to 0.097 μM final concentration) in 384 wells microtiter plates and inoculated with 49 μl the bacterial suspension in Iso-Sensitest medium to have a final cell concentration of ˜5×10^(5) CFU/ml in a final volume/well of 50 ul/well. Microtiter plates were incubated at 35±2° C. Bacterial cell growth was determined with the measurement of optical density at X=600 nm each 20 minutes over a time course of 16 h. Growth inhibition was calculated during the logarithmic growth of the bacterial cells with determination of the concentration inhibiting 50% (IC50) and 90% (IC90) of the growth. Table 1 provides the 90% growth inhibitory concentrations (IC90) in micromoles per liter of the compounds of present invention obtained against the strain Acinetobacter baumannii ATCC17978.

In the case of `Cn1c(-c2ccc(OCC#N)c(F)c2F)cnc1C(=O)Nc1ccc(C(=O)NCCNC(=O)[C@H]2CCNC[C@@H]2O)c(Cl)c1` [Example B35, (3R,4S)-N-[2-[[2-chloro-4-[[5-[4-(cyanomethoxy)-2,3-difluoro-phenyl]-1-methyl-imidazole-2-carbonyl]amino]benzoyl]amino]ethyl]-3-hydroxy-piperidine-4-carboxamide;formic acid], the IC90 was determined as 1300 nM.

As to `CCc1cc(NC(=O)c2ncc(-c3ccc(OCC#N)c(F)c3Cl)n2C)ccc1C(=O)NCCOCCN` [Example A22, N-[4-[2-(2-aminoethoxy)ethylcarbamoyl]-3-ethyl-phenyl]-5-[2-chloro-4-(cyanomethoxy)-3-fluoro-phenyl]-1-methyl-imidazole-2-carboxamide;hydrochloride], the IC90 is 180 nM.

For the compound `Cn1c(-c2ccc(OC(F)F)c(F)c2F)cnc1C(=O)Nc1ccc(C(=O)NCCC2CN(CC3CNC3)C2)c(Cl)c1` [Example C1, N-[4-[2-[1-(Azetidin-3-ylmethyl)azetidin-3-yl]ethylcarbamoyl]-3-chloro-phenyl]-5-[4-(difluoromethoxy)-2,3-difluoro-phenyl]-1-methyl-imidazole-2-carboxamide;2,2,2-trifluoroacetic acid], the IC90 was 830 nM.

For `COc1ccc(-c2cnc(C(=O)Nc3ccc(C(=O)NC4CCN(C(=O)CCOCCN)C4)c(Cl)c3)n2C)c(F)c1F` (stereo not drawn) [Example B4, N-[4-[[1-[3-(2-aminoethoxy)propanoyl]pyrrolidin-3-yl]carbamoyl]-3-chloro-phenyl]-5-(2,3-difluoro-4-methoxy-phenyl)-1-methyl-imidazole-2-carboxamide;formic acid], the IC90 amounted to 200 nM.

In the case of `COc1ccc(-c2cnc(C(=O)Nc3ccc(C(=O)NC4CCNCC4)c(Cl)c3)n2C)c(F)c1F` [Example A4, N-[3-chloro-4-(4-piperidylcarbamoyl)phenyl]-5-(2,3-difluoro-4-methoxy-phenyl)-1-methyl-imidazole-2-carboxamide;formic acid], the IC90 came to 440 nM.

Regarding `COc1ccc(-c2cnc(C(=O)Nc3ccc(C(=O)NCC4CC(CN)C4)c(Cl)c3)n2C)c(F)c1F` (stereo not drawn) [Example A7, N-[4-[[3-(aminomethyl)cyclobutyl]methylcarbamoyl]-3-chloro-phenyl]-5-(2,3-difluoro-4-methoxy-phenyl)-1-methyl-imidazole-2-carboxamide;formic acid], the IC90 stood at 240 nM.

Take `Cn1c(-c2ccc(OCC#N)c(F)c2F)cnc1C(=O)Nc1ccc(C(=O)NCCNC(=O)[C@H]2C[C@@](C)(O)CN2)c(Cl)c1` [Example B36, N-[3-chloro-4-[2-[[(2R,4R)-4-hydroxy-4-methyl-pyrrolidine-2-carbonyl]amino]ethylcarbamoyl]phenyl]-5-[4-(cyanomethoxy)-2,3-difluoro-phenyl]-1-methyl-imidazole-2-carboxamide;formic acid]: the IC90 came out at 1100 nM.

For the compound `Cn1c(-c2ccc(OCC#N)c(F)c2F)cnc1C(=O)Nc1ccc(C(=O)NCCOCCN)c(Cl)c1` [Example A9, N-[4-[2-(2-aminoethoxy)ethylcarbamoyl]-3-chloro-phenyl]-5-[4-(cyanomethoxy)-2,3-difluoro-phenyl]-1-methyl-imidazole-2-carboxamide;formic acid], the IC90 was 250 nM.

Take `COc1ccc(-c2cnc(C(=O)Nc3ccc(C(=O)NC4CCN(C(=O)[C@@H]5CCNC5)CC4)c(Cl)c3)n2C)c(F)c1F` [Example B6, N-[3-chloro-4-[[1-[(3R)-pyrrolidine-3-carbonyl]-4-piperidyl]carbamoyl]phenyl]-5-(2,3-difluoro-4-methoxy-phenyl)-1-methyl-imidazole-2-carboxamide;formic acid]: the IC90 worked out at 100 nM.

As to `CCc1cc(NC(=O)c2ncc(-c3ccc(OC(C)C)c(F)c3)n2C)ccc1C(=O)NCCOCCN` [Example A15, N-[4-[2-(2-aminoethoxy)ethylcarbamoyl]-3-ethyl-phenyl]-5-(3-fluoro-4-isopropoxy-phenyl)-1-methyl-imidazole-2-carboxamide;hydrochloride], the IC90 is 4500 nM.

As to `COc1ccc(-c2cnc(C(=O)Nc3ccc(C(=O)NCCNC(=O)CN(C)C)c(Cl)c3)n2C)c(F)c1F` [Example A24, N-[3-chloro-4-[2-[[2-(dimethylamino)acetyl]amino]ethylcarbamoyl]phenyl]-5-(2,3-difluoro-4-methoxy-phenyl)-1-methyl-imidazole-2-carboxamide;2,2,2-trifluoroacetic acid], the IC90 came out at 670 nM.

Turning to `CCc1cc(NC(=O)c2ncc(-c3ccc(OC(F)F)cc3)n2C)ccc1C(=O)NCCOCCN` [Example A14, N-[4-[2-(2-aminoethoxy)ethylcarbamoyl]-3-ethyl-phenyl]-5-[4-(difluoromethoxy)phenyl]-1-methyl-imidazole-2-carboxamide;hydrochloride], the IC90 is 3000 nM.

As to `CC[C@]1(O)CN[C@@H](C(=O)NCCNC(=O)c2ccc(NC(=O)c3ncc(-c4ccc(OCC#N)c(F)c4F)n3C)cc2Cl)C1` [Example B37, N-[3-chloro-4-[2-[[(2R,4R)-4-ethyl-4-hydroxy-pyrrolidine-2-carbonyl]amino]ethylcarbamoyl]phenyl]-5-[4-(cyanomethoxy)-2,3-difluoro-phenyl]-1-methyl-imidazole-2-carboxamide;formic acid], the IC90 was 850 nM.

Consider `Cc1cc(NC(=O)c2ncc(-c3ccc(OCC#N)c(F)c3F)n2C)ccc1C(=O)NCCNC(=O)[C@H]1C[C@@](C)(O)CN1` [Example B24, 5-[4-(cyanomethoxy)-2,3-difluoro-phenyl]-N-[4-[2-[[(2R,4R)-4-hydroxy-4-methyl-pyrrolidine-2-carbonyl]amino]ethylcarbamoyl]-3-methyl-phenyl]-1-methyl-imidazole-2-carboxamide;formic acid], for which the IC90 was 1000 nM.

Regarding `COc1ccc(-c2cnc(C(=O)Nc3ccc(C(=O)N[C@H]4C[C@@H](NC(=O)C5CC(CN)C5)C4)c(Cl)c3)n2C)c(F)c1F` (stereo partly drawn) [Example B9, N-[4-[[3-[[3-(aminomethyl)cyclobutanecarbonyl]amino]cyclobutyl]carbamoyl]-3-chloro-phenyl]-5-(2,3-difluoro-4-methoxy-phenyl)-1-methyl-imidazole-2-carboxamide;formic acid], the IC90 was 210 nM.

Regarding `COc1ccc(-c2cnc(C(=O)Nc3ccc(C(=O)NC4CCN(C(=O)CCOCCN)CC4)c(Cl)c3)n2C)c(F)c1F` [Example B8, N-[4-[[1-[3-(2-aminoethoxy)propanoyl]-4-piperidyl]carbamoyl]-3-chloro-phenyl]-5-(2,3-difluoro-4-methoxy-phenyl)-1-methyl-imidazole-2-carboxamide;formic acid], the IC90 was 140 nM.

With `COc1ccc(-c2cnc(C(=O)Nc3ccc(C(=O)NCC4CCN(CC5CNC5)CC4)c(Cl)c3)n2C)c(F)c1F` [Example C4, N-[4-[[1-(azetidin-3-ylmethyl)-4-piperidyl]methylcarbamoyl]-3-chloro-phenyl]-5-(2,3-difluoro-4-methoxy-phenyl)-1-methyl-imidazole-2-carboxamide;2,2,2-trifluoroacetic acid], the IC90 is 750 nM.

`COc1ccc(-c2cnc(C(=O)Nc3ccc(C(=O)NCCN4CCNCC4)c(Cl)c3)n2C)c(F)c1F` [Example A2, N-[3-chloro-4-(2-piperazin-1-ylethylcarbamoyl)phenyl]-5-(2,3-difluoro-4-methoxy-phenyl)-1-methyl-imidazole-2-carboxamide]: the 90% effect concentration (IC90) came out at 610 nM.

What is called IC90 is the concentration needed for an effect of 90%.
